Measurements from patent publication US20230133958A1, “COMPOUNDS USEFUL IN MODULATING EGFR AND PI3K” (Mekanistic Therapeutics LLC, priority 2021, published 2023).
pIC50: −log10 of the molar value.

Target: HER2 (Homo sapiens, UniProt P04626)
Test: Z'-LYTE / Adapta biochemical kinase assay, HER2
Text: The Z′-LYTE® biochemical assay employs a fluorescence-based, coupled-enzyme format and is based on the differential sensitivity of phosphorylated and non-phosphorylated peptides to proteolytic cleavage. The peptide substrate is labeled with two fluorophores—one at each end—that make up a FRET pair. In the primary reaction, the kinase transfers the gamma-phosphate of ATP to a single tyrosine, serine or threonine residue in a synthetic FRET-peptide. In the secondary reaction, a site-specific protease recognizes and cleaves non-phosphorylated FRET-peptides. Phosphorylation of FRET-peptides suppresses cleavage by the Development Reagent. […] A ratiometric method, which calculates the ratio (the Emission Ratio) of donor emission to acceptor emission after excitation of the donor fluorophore at 400 nm, is used to quantitate reaction progress.
A significant benefit of this ratiometric method for quantitating reaction progress is the elimination of well-to-well variations in FRET-peptide concentration and signal intensities. […]
Both cleaved and uncleaved FRET-peptides contribute to the fluorescence signals and therefore to the Emission Ratio. The extent of phosphorylation of the FRET-peptide can be calculated from the Emission Ratio. […]

Sequence of HER2 (P04626 23-1255): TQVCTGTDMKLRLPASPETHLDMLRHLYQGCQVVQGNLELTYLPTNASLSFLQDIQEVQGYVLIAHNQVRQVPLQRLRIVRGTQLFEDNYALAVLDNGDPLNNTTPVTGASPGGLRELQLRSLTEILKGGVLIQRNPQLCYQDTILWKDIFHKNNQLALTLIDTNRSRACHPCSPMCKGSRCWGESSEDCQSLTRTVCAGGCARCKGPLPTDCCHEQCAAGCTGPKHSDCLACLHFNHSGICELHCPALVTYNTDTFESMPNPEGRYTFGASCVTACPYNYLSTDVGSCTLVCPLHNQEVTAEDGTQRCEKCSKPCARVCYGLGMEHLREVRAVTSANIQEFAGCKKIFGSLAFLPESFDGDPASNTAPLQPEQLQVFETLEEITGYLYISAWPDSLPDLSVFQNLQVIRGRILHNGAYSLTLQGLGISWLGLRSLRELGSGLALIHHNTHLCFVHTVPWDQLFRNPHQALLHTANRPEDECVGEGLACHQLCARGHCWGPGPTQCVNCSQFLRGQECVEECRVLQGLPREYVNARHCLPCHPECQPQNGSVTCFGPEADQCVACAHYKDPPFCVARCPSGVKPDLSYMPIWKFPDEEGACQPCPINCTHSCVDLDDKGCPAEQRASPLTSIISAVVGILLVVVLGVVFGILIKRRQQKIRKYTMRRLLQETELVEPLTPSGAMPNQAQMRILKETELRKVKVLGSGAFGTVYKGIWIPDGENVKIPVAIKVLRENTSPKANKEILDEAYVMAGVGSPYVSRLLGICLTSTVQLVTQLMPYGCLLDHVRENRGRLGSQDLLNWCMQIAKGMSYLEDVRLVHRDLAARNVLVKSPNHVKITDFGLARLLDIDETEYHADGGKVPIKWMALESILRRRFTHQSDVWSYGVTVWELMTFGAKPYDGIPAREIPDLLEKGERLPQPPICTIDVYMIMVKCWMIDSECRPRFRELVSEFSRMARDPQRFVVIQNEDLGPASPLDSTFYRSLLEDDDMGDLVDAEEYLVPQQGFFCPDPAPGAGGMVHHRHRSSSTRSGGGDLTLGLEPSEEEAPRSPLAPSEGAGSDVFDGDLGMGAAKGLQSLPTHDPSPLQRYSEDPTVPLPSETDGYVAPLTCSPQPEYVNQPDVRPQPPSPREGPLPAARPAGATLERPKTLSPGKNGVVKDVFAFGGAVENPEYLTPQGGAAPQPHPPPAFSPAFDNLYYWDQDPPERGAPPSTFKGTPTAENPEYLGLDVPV

With `CS(=O)(=O)Nc1cc(-c2ccc3ncnc(Nc4cccc(Cl)c4F)c3c2)cnc1Cl` [Compound 6, N-[2-chloro-5-[4-(3-chloro-2-fluoro-anilino)quinazolin-6-yl]-3-pyridyl] methanesulfonamide] the pIC50 was < 6.70.
